In PMC5944028, “Nonclinical and clinical pharmacological characterization of the potent and selective cathepsin K inhibitor MIV-711” (Journal of Translational Medicine, 2018):

Key:
human cathepsin K = target: T1, human cathepsin K (Homo sapiens, UniProt P43235); assay: Kinetics of inhibition by progress curve analysis; type: biochemical
T1 construct: made in house; host or cells: E. coli
T1 sequence (P43235 115-329): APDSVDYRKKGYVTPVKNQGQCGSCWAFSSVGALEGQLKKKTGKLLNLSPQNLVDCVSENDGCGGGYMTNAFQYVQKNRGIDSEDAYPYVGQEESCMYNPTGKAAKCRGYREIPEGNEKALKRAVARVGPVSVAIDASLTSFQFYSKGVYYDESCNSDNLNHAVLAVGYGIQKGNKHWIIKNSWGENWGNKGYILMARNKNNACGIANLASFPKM
Protocol: The kinetics of MIV-711 inhibition of human recombinant cathepsin K were measured by progress curve analysis. Briefly, 100 µmol/L substrate and 0.5 nmol/L cathepsin K were combined in 0.5 mL of buffer in a quartz cuvette and the fluorescence measured continuously in a spectrofluorometer (Hitachi F-4500, Hitachi Scientific Instruments, Woking, UK). Excitation wavelength was 385 nm and emission wavelength was 460 nm and slits were 5 and 10 nm for excitation and emission, respectively. PMT voltage was 700 V and the response time was 0.01 s. Once a linear rate was established, 5 µL MIV-711 (final assay concentration between 10 and 50 nmol/L) or 5 µL DMSO control was added and data collected until a new equilibrium rate was achieved. Data were imported into GraphPad Prism and then fitted to the Morrison equation [26] to obtain kobs. The kobs values were plotted against the inhibitor concentration and fitted to a straight line to obtain kon and koff.

human cathepsin S = target: T2, human cathepsin S (Homo sapiens, UniProt P25774); assay: Enzyme assay, human cathepsin S; type: biochemical; settings: geometric mean
T2 construct: made in house
Excerpt: Recombinant cathepsin K enzymes from all species were expressed in E. coli, purified and activated. Human cathepsin F and cathepsin S were expressed in Baculovirus, purified and activated. Purified human cathepsins B and H (Athens Research Technology), cathepsin L (Calbiochem), and cathepsin V (R & D Systems) were purchased.
H-D-Ala_Leu-Lys-AMC was used as the substrate in assays of cathepsin K from non-rodent species (human, dog, rabbit and guinea pig), and Z-Leu-Arg-AMC was used as the substrate in assays of cathepsin K from rodent species (mouse and rat). […]
Assays were carried out in white polystyrene 96-well plates in a final volume of 100 µL. […] Plates were read in a Fluoroskan Ascent (Thermo Labsystems, Helsinki, Finland) in kinetic mode, with excitation and emission filters of 390 and 460 nm, respectively. Rates were determined by linear regression of the fluorescence/time data in Excel. Rates were fitted by non-linear regression to either the competitive inhibition equation, with the substrate concentration fixed at the value in the assay and the KM fixed to the value previously determined, or the IC50 equation using GraphPad Prism (GraphPad, version 6, San Diego, USA) to obtain Ki or IC50 values, respectively.

[1] = Monkey plasma pharmacokinetics, single oral dose; type: in vivo, cynomolgus monkeys (Macaca fascicularis); settings: for AUC0–t / AUCinf / Cmax / Cmax/dose / t½: geometric mean (CV%); for tmax: median (min–max)
Protocol: Eight cynomolgus monkeys (Macaca fascicularis) were used for measuring plasma levels of MIV-711 and CTX-I after a single dose. The animals were healthy young males, approximately 2–4 years old and weighing 3–4 kg. Experiments were performed at Covance Ltd (Harrogate, UK). The monkeys were used over an extended period of time (up to a year) and several cathepsin K inhibitors were evaluated during this time. At least 1 week was allowed for washout in between experiments. This was not believed to affect the results with MIV-711, and vehicle controls were run on a regular basis when appropriate. Each animal received at least one dose of MIV-711 and one dose of vehicle with at least 1 week of washout in between treatments.
In single dose experiments, animals were dosed with vehicle or MIV-711 (3–30 µmol/kg) via oral gavage at a dose volume of 4 mL/kg between 7:30 and 9:00 a.m. Blood samples were collected at baseline, 30 min, 1, 2, 4, 8, 12, 24 and 48 h after dose from the femoral vein and transferred into lithium heparin anticoagulant tubes. The samples were centrifuged and the two aliquots of the resultant plasma were frozen at − 70 °C. All samples were processed and stored within 30 min of collection. The aliquots were used to determine the MIV-711 concentration and CTX-I levels, respectively. [drawing 1]
The quantification of MIV-711 in monkey plasma was performed by taking 10–50 µL of plasma and mixing with 3 volumes of acetonitrile (10 s, Vibrofix). The sample was centrifuged (10 min, 20,000×g, 7 °C) and 5 µL of the supernatant was injected onto the liquid chromatography with tandem mass spectrometric detection (LC–MS/MS) system. The lowest concentration of the standard curves and the lower limit of quantification (LLOQ) was 1 nmol/L of MIV-711. The human plasma samples were prepared by protein precipitation for sample extraction followed by LC–MS/MS. The lowest concentration of the standard curves and the LLOQ was 4 nmol/L of MIV-711 using 25 µL of plasma.

T2 sequence (P25774 115-331): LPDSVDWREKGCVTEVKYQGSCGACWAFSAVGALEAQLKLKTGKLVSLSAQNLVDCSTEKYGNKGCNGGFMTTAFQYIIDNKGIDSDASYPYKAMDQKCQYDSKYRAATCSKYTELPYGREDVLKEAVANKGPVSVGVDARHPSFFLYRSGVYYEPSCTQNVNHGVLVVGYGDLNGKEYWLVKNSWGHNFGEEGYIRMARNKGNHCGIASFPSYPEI

C#C[C@@H]1CN(C(=O)[C@H](CC(C)C)NC(=O)c2ccc(-c3nc(N4CCN(C)CC4)sc3F)cc2)[C@@H]2C(=O)CO[C@H]12 [MIV-711]
residence time (human cathepsin K; from koff): about 90 s | Ki (human cathepsin K; from kon and koff experiments, read-out: Ki from kinetic experiments): 0.0017 µM | koff rate (human cathepsin K; human cathepsin K): 0.008 s⁻¹ | kon rate (human cathepsin K; human cathepsin K): 4.6e+06 M⁻¹ s⁻¹ | Ki (human cathepsin S): 15.7 µM | AUC0–t ([1]; 3 µmol/kg p.o. single dose): 0.400 (60) µmol/L × h | AUCinf ([1]; 3 µmol/kg p.o. single dose): 0.409 (62) µmol/L × h | Cmax ([1]; 3 µmol/kg p.o. single dose): 0.102 µM | Cmax/dose ([1]; 3 µmol/kg p.o. single dose): 0.034 (65) | t½ ([1]; 3 µmol/kg p.o. single dose): 2.1 (16) h | tmax ([1]; 3 µmol/kg p.o. single dose): 2.0 (2.0–2.0) h | AUC0–t ([1]; 10 µmol/kg p.o. single dose): 0.881 (52) µmol/L × h | AUCinf ([1]; 10 µmol/kg p.o. single dose): 0.932 (46) µmol/L × h | Cmax ([1]; 10 µmol/kg p.o. single dose): 0.164 µM | Cmax/dose ([1]; 10 µmol/kg p.o. single dose): 0.016 (41) | t½ ([1]; 10 µmol/kg p.o. single dose): 3.1 (52) h | tmax ([1]; 10 µmol/kg p.o. single dose): 2.0 (0.50–4.0) h | AUC0–t ([1]; 30 µmol/kg p.o. single dose): 6.21 (62) µmol/L × h | AUCinf ([1]; 30 µmol/kg p.o. single dose): 6.28 (62) µmol/L × h | Cmax ([1]; 30 µmol/kg p.o. single dose): 0.923 µM | Cmax/dose ([1]; 30 µmol/kg p.o. single dose): 0.031 (56) | t½ ([1]; 30 µmol/kg p.o. single dose): 3.4 (30) h | tmax ([1]; 30 µmol/kg p.o. single dose): 2.0 (1.0–4.0) h | Plasma concentration at 24 h post-dose ([1]; highest dose group (30 µmol/kg p.o.)): approximately 10 nmol/L | Plasma concentration at 24 h post-dose ([1]; lowest dose group (3 µmol/kg p.o.), below LLOQ): < 0.001 µM
